According to patent US7714146B2, “Azulene-oxindole compounds as multiple-kinase inhibitors and useful as anticancer agents” (Industrial Technology Research Institute, priority 2006, dated 2010):

Columns and labels:
Type in all cases: biochemical
[1] = molecular target: T1, human c-KIT (Thr544-Val976) (Homo sapiens, UniProt P10721); assay: c-KIT kinase assay (HTScan kit, DELFIA); details: for inhibition at 0.1 µM: compound at 0.1 μM, read-out: c-KIT 0.1 μM, % of inhibition relative to control; for inhibition at 1 µM: compound at 1 μM, read-out: c-KIT 1 μM, % of inhibition relative to control; for IC50: read-out: c-KIT kinase inhibition (IC50)
T1 construct: human c-KIT (Thr544-Val976); GST (N); purchased Cell Signaling Technology; host or cells: baculovirus expression system
Outline: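 GST-tagged human c-KIT (Thr544-Val976) from baculovirus, with 1.5 μM biotinylated KDR Tyr-996 peptide and 20 μM ATP in HEPES pH 7.5 buffer containing Mg2+/Mn2+ and 1% DMSO. Enzyme and compound pre-incubated 5 min, reaction run 30 min at room temperature; phosphorylation detected by DELFIA.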

[2] = molecular target: T2, human FLT-3 (Arg571-Ser993) (Homo sapiens, UniProt P36888); assay: FLT-3 kinase assay (HTScan kit, DELFIA); details: for inhibition at 0.1 µM: compound at 0.1 μM, read-out: FLT-3 0.1 μM, % of inhibition relative to control; for inhibition at 1 µM: compound at 1 μM, read-out: FLT-3 1 μM, % of inhibition relative to control; for IC50: read-out: FLT-3 kinase inhibition (IC50)
T2 construct: human FLT-3 (Arg571-Ser993); GST (N); purchased Cell Signaling Technology; host or cells: baculovirus expression system
T2 sequence (P36888 571-993): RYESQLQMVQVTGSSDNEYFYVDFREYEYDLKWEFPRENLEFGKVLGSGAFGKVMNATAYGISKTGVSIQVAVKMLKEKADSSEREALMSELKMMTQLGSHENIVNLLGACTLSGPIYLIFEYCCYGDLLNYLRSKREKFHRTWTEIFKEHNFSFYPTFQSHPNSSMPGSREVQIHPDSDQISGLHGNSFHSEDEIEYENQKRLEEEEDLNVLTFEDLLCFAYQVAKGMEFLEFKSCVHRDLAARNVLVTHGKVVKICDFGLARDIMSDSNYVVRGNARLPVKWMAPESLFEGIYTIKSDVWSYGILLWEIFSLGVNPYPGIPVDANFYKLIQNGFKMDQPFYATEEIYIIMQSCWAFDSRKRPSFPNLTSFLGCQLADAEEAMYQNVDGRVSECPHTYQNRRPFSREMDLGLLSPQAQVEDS
Outline: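 GST-tagged human FLT-3 (Arg571-Ser993, baculovirus-expressed) phosphorylated 1.5 μM biotinylated gastrin precursor peptide with 20 μM ATP in HEPES pH 7.5, Mg/Mn buffer and 1% DMSO. After 5 min preincubation, the reaction ran 30 min at room temperature. Phosphorylation was read by DELFIA.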

[3] = molecular target: T3, human VEGFR-2 (Val789-Val1356) (Homo sapiens, UniProt P35968); assay: KDR kinase assay (HTScan VEGFR-2 kit, DELFIA); details: for inhibition at 1 µM: compound at 1 μM, read-out: KDR 1 μM, % of inhibition relative to control; for inhibition at 0.1 µM: compound at 0.1 μM, read-out: KDR 0.1 μM, % of inhibition relative to control
T3 construct: human VEGFR-2 (Val789-Val1356); GST (N); purchased Cell Signaling Technology; host or cells: baculovirus expression system
Outline: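 GST-tagged human VEGFR-2 (Val789-Val1356) from baculovirus, with 1.5 μM biotinylated gastrin precursor peptide and 20 μM ATP in HEPES pH 7.5, Mg/Mn, vanadate, DTT, 1% DMSO. Pre-incubation 5 min, reaction 30 min at room temperature; phosphorylation read by DELFIA.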

[4] = molecular target: T4, human EGFR (His672-Ala1210) (Homo sapiens, UniProt P00533); assay: EGFR kinase assay (HTScan kit, DELFIA); details: for inhibition at 0.1 µM: compound at 0.1 μM, read-out: EGFR 0.1 μM, % of inhibition relative to control; for inhibition at 1 µM: compound at 1 μM, read-out: EGFR 1 μM, % of inhibition relative to control
T4 construct: human EGFR (His672-Ala1210); GST (N); purchased Cell Signaling Technology; host or cells: baculovirus expression system
Description: Compounds 1-100 were treated for their efficacy in inhibiting activities of FLT-3, c-KIT, KDR/Flk-1, PDGFR-beta, EGFR, and PKC kinases by biochemical DELFIA (Dissociation Enhanced Lanthanide FIA) assays according to the procedure described below. The assays were conducted by, Division of Cell Engineering, Biomedical Engineering Research Laboratories, Industrial Technology Research Institute, Bldg. 53, 195, sec. 4, Chung Hsing Rd. Chutung, Hsinchu, Taiwan 310, R.O.C.
The EGFR assay was conducted following the protocol described in Protocol for HTScan® EGFR Kinase Assay Kit (Cell Signaling Technology®). The assay was conducted under the following conditions: EGFR source: The GST-kinase fusion protein was produced using a baculovirus expression system with a construct expressing human EGFR (His672-Ala1210) (GenBank Accession No. NM_005228) with an amino-terminal GST tag, substrate: 1.5 μM This biotinylated peptide contains the residues surrounding Tyr-66 of PTP1B, vehicle: 1% DMSO, pre-incubation time/temperature: 5 minutes at room temperature, incubation time/temperature: 30 minutes at room temperature, incubation buffer: 60 mM HEPES pH 7.5, 5 mM MgCl2, 5 mM MnCl2, 3 μM Na3VO4, 1.25 mM DTT, 20 μM ATP, and quantitative method: DELFIA® Assay.

T1 sequence (P10721 544-976): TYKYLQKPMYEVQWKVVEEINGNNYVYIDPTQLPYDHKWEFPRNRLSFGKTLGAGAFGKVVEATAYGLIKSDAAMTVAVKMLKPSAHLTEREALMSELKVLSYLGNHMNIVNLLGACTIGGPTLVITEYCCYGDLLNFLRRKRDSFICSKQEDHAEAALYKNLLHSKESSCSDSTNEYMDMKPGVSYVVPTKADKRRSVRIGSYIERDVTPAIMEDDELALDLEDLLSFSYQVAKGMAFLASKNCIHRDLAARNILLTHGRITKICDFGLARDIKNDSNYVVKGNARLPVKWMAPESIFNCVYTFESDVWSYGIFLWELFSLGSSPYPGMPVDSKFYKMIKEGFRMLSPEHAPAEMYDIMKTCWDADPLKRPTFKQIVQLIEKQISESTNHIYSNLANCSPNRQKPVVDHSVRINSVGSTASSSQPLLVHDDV
T3 sequence (P35968 789-1356): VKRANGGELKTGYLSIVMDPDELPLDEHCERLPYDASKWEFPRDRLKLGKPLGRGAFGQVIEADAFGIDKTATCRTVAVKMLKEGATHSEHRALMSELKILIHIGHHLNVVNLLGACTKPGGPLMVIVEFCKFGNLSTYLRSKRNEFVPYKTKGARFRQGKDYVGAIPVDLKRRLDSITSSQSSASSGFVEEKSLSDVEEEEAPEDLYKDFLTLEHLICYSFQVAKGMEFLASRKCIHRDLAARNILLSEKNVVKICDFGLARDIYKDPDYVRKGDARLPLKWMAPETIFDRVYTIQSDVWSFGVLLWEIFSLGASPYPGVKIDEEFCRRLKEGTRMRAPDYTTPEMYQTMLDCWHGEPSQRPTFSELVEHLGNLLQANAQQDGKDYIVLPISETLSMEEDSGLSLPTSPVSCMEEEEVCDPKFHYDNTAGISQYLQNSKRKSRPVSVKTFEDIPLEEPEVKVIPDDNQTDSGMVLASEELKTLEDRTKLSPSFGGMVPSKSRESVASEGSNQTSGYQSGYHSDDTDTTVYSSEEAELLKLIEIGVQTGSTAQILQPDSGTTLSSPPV
T4 sequence (P00533 672-1210): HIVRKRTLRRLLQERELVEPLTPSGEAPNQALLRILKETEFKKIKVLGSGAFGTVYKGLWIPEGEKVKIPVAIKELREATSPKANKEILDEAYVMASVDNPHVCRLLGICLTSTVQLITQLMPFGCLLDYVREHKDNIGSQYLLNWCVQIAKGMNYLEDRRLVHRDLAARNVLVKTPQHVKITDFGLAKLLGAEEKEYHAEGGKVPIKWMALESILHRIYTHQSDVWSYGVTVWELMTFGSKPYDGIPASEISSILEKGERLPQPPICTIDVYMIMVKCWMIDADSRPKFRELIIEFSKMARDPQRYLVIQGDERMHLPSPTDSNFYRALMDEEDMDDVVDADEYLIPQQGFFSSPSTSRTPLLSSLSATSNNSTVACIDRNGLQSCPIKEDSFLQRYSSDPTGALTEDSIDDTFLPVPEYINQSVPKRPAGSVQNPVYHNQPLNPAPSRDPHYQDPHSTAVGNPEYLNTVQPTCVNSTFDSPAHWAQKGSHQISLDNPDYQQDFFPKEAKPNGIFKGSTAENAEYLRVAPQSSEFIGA

| Compound | inhibition at 0.1 µM [1] | inhibition at 1 µM [1] | inhibition at 0.1 µM [2] | inhibition at 1 µM [2] | inhibition at 1 µM [3] | inhibition at 0.1 µM [4] | inhibition at 1 µM [4] | inhibition at 0.1 µM [3] | IC50 [1] | IC50 [2] | IC50 ([3]; read-out: KDR kinase inhibition (IC50)) |
| --- | --- | --- | --- | --- | --- | --- | --- | --- | --- | --- | --- |
| O=C1Nc2ccccc2/C1=C\c1cc2cccccc-2c1 [Compound 32, 3-Azulen-2-ylmethylene-1,3-dihydro-indol-2-one] | 60.3% | 60.3% | 48.5% | 89.5% | 6.2% | 7.7% | 13.7% | – | – | – | – |
| O=C1Nc2ccc(-c3ccccc3)cc2/C1=C/c1ccc2cccccc1-2 [Compound 34, 3-Azulen-1-ylmethylene-5-phenyl-1,3-dihydro-indol-2-one] | – | – | 0.8% | 1.9% | 18.2% | 6.1% | 11.7% | 8.9% | – | – | – |
| Cc1cc(/C=C2/C(=O)Nc3ccccc32)c2cccccc1-2 [Compound 36, 3-(3-Methyl-azulen-1-ylmethylene)-1,3-dihydro-indol-2-one] | 49.2% | 49.2% | – | 39.3% | 0.3% | 9.6% | 10.9% | – | – | – | – |
| Cc1cc(/C=C2\C(=O)Nc3ccc(F)cc32)c2cccccc1-2 [Compound 39, 5-Fluoro-3-(3-methyl-azulen-1-ylmethylene)-1,3-dihydro-indol-2-one] | 80.1% | 80.1% | 45.6% | 93.2% | 20.2% | 6.1% | 14.1% | – | 128 nM | 491 nM | 6380 nM |
| O=C1Nc2ccc(F)cc2/C1=C\c1cc2cccccc-2c1 [Compound 40, 3-Azulen-2-ylmethylene-5-fluoro-1,3-dihydro-indol-2-one] | 80% | 80% | 84.3% | 95.5% | 22.2% | 10% | 17.3% | 13.8% | – | – | – |
| O=C1Nc2ccc(F)cc2/C1=C/c1cc2cccccc-2c1 [Compound 41, 3-Azulen-2-ylmethylene-5-fluoro-1,3-dihydro-indol-2-one] | 76.6% | 76.6% | 74.7% | 87.6% | 30.4% | 6.4% | 9.4% | 25.2% | 6 nM | 43.4 nM | – |
| O=C1Nc2c(Cl)cccc2/C1=C/c1ccc2cccccc1-2 [Compound 42, 3-Azulen-1-ylmethylene-7-chloro-1,3-dihydro-indol-2-one] | 8.3% | 8.3% | 8.9% | 24.3% | 13.6% | 8.8% | 10.8% | 6% | – | – | – |
| COc1ccc2c(c1)/C(=C\c1ccc3cccccc1-3)C(=O)N2 [Compound 43, 3-Azulen-1-ylmethylene-5-methoxy-1,3-dihydro-indol-2-one] | 14.7% | 14.7% | – | 24.3% | 6.8% | 6.2% | 11.9% | – | – | – | – |
| O=C1Nc2ccc(F)cc2/C1=C/c1cc(Br)c2cccccc1-2 [Compound 45, 3-(3-Bromo-azulen-1-ylmethylene)-5-fluoro-1,3-dihydro-indol-2-one] | 73.9% | 73.9% | 51.4% | 69.7% | 41.9% | 2.5% | – | 32.8% | – | – | – |

Second part, the compound after the results:

| inhibition at 0.1 µM [1] | inhibition at 1 µM [1] | inhibition at 0.1 µM [2] | inhibition at 1 µM [2] | inhibition at 1 µM [3] | inhibition at 0.1 µM [4] | inhibition at 1 µM [4] | inhibition at 0.1 µM [3] | IC50 [1] | IC50 [2] | IC50 ([3]; read-out: KDR kinase inhibition (IC50)) | Compound |
| --- | --- | --- | --- | --- | --- | --- | --- | --- | --- | --- | --- |
| 63.1% | 63.1% | 50.5% | 85.6% | 50.8% | 15.2% | 13% | 24.6% | – | – | – | O=C1Nc2ccccc2/C1=C/c1cc2cccccc-2c1 [Compound 33, 3-Azulen-2-ylmethylene-1,3-dihydro-indol-2-one] |
| 53.2% | 53.2% | 5.9% | 61.5% | 27.6% | 2.9% | 13.6% | – | – | – | – | Cc1cc(C=C2C(=O)Nc3ccccc32)c2cccccc1-2 [Compound 37, 3-(3-Methyl-azulen-1-ylmethylene)-1,3-dihydro-indol-2-one] |
| 72.6% | 72.6% | 40.5% | 79% | 8.4% | 0.8% | 1.7% | 2.3% | – | – | – | Cc1cc(/C=C2/C(=O)Nc3ccc(F)cc32)c2cccccc1-2 [Compound 38, 5-Fluoro-3-(3-methyl-azulen-1-ylmethylene)-1,3-dihydro-indol-2-one] |
| 7.2% | 7.2% | 5.7% | 8.2% | 38.4% | 4.7% | 9.3% | – | – | – | – | COc1ccc2c(c1)/C(=C/c1ccc3cccccc1-3)C(=O)N2 [Compound 44, 3-Azulen-1-ylmethylene-5-methoxy-1,3-dihydro-indol-2-one] |
| 70.9% | 70.9% | 45.9% | 73.5% | 33.2% | 11% | 18.5% | 10% | – | – | – | O=C1Nc2ccc(F)cc2/C1=C/c1cc(Cl)c2cccccc1-2 [Compound 46, 3-(3-Chloro-azulen-1-ylmethylene)-5-fluoro-1,3-dihydro-indol-2-one] |
| 30.7% | 30.7% | 0.5% | 48.6% | 34% | 8.3% | 14.6% | 7.8% | – | – | – | Cc1ccc2c(c1)/C(=C\c1ccc3cccccc1-3)C(=O)N2 [Compound 47, 3-Azulen-1-ylmethylene-5-methyl-1,3-dihydro-indol-2-one] |
| 32.2% | 32.2% | 4.5% | 61.6% | 13.8% | 7.8% | 10.4% | – | – | – | – | Cc1ccc2c(c1)/C(=C/c1ccc3cccccc1-3)C(=O)N2 [Compound 48, 3-Azulen-1-ylmethylene-5-methyl-1,3-dihydro-indol-2-one] |
